The values that follow come from patent US10588967B2, “Chimeric antigen receptor (CAR) signalling system” (UCL BUSINESS PLC, priority 2014, dated 2020).

In assay [1] the test system is T-cells transduced with split CD19 CAR with EcR and RXR heterodimerization motifs. The experiment in a line: RSL1-inducible CD19 CAR: IL-2 release of transduced T-cells challenged with CD19 negative or positive targets. The class given is cell-based. The note with it: CD19 negative or CD19 positive target cells; increasing concentration of RSL1. An excerpt:
FIG. 10—RSL1 inducible CAR (a) an RSL1 inducible CAR was constructed by using retinoic acid receptor domains and ecodysone receptor domains to constitute the heterodimerization motifs for the antigen recognition component and the signalling component respectively. The antigen recognition component recognizes CD19. (b) T-cells expressing this CAR along with non-transduced T-cells were stained with anti-Fc which recognizes the CAR spacer. The transduced T-cells expressed the CAR well. (c) Transduced T-cells were next challenged with increasing concentration of RSL1 and challenged with either CD19 negative or CD19 positive target cells.
Signaling through the signaling component may be determined by a variety of methods known in the art. […] Functional readouts, such as clonal expansion of T cells, upregulation of activation markers on the cell surface, differentiation into effector cells and induction of cytotoxicity or cytokine secretion may also be utilised. As an illustration, in the present examples the inventors determined levels of interleukin-2 (IL-2) produced by T-cells expressing a receptor component and signalling component of the CAR signalling system according to the present invention upon binding of antigen to the receptor component in the presence of varying concentrations of CID. […]

In assay [2] the test system is T-cells transduced with inducible CAR with modified FKBP12 domains. The experiment in a line: AP1903-inducible CD19 CAR: signalling of transduced T-cells challenged with CD19 negative or positive targets. Format: cell-based. An excerpt: FIG. 11—AP1903 homodimerizer inducible CAR. (a) AP1903 homodimerizer inducible CAR was constructed by using modified FKBP12 domains to constitute the heterodimerization motifs for both the antigen recognition component and the signalling component. The antigen recognition component recognizes CD19. (b) T-cells expressing this CAR along with non-transduced T-cells were stained with anti-Fc which recognizes the CAR spacer. The transduced T-cells expressed the CAR well. (c) Transduced T-cells were next challenged with increasing concentration of CID dimerizer AP1903 and challenged with either CD19 negative or CD19 positive target cells.
AP1903 is a synthetic chemical inducer of dimerization which binds to two mutated FKB12 domains (Clackson et al (1998). Proc. Natl. Acad. Sci. U.S.A 95, 10437-10442). An inducible CAR was developed based on this system, using the modified FKBP12 domains to constitute the heterodimerization domain of both the antigen recognition component and signalling component in the framework as described in Example 1 with the antigen recognition domain and the signalling domain co-expressed with a FMD-2A like sequence (FIG. 11a and SEQ ID No. 24). The FKBP12 domains were codon-wobbled to prevent homologous recombination. T-cells were transduced with this construct and challenged with target cells which were CD19 negative or positive.

Assay [3] concerns the target FKBP-like binding domains with a F36V mutation (Homo sapiens, UniProt P62942, F37V). As to conditions: cells engineered to express FKBP-like binding domain fusion proteins; cited from earlier work.

Entries after “also recorded” stand apart in the source; their conditions may differ.

Sequence of FKBP-like binding domains with a F36V mutation (P62942 2-108 F37V): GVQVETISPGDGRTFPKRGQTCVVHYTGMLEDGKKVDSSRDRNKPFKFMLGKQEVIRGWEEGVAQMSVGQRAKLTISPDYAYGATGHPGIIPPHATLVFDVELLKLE

In the case of `CCc1c(OC)cccc1C(=O)NN(C(=O)c1cc(C)cc(C)c1)C(C)(C)C` [RSL1, N-(2-ethyl-3-methoxybenzoyl)-N′-(3,5-dimethylbenzoyl)-N′-tert-butylhydrazine], the “IL-2 release / signalling of RSL1-inducible CAR T-cells” value in assay [1] is “Only CAR T-cells challenged with SupT1 targets in the presence of RSL1 released IL-2; also recorded: signal only in the presence of RSL1”.

`CC[C@H](C(=O)N1CCCC[C@H]1C(=O)O[C@H](CCc1ccc(OC)c(OC)c1)c1cccc(OCC(=O)NCCNC(=O)COc2cccc([C@@H](CCc3ccc(OC)c(OC)c3)OC(=O)[C@@H]3CCCCN3C(=O)[C@@H](CC)c3cc(OC)c(OC)c(OC)c3)c2)c1)c1cc(OC)c(OC)c(OC)c1` [AP1903]: the “Response / signalling of AP1903-inducible CAR T-cells” value in assay [2] (CD19 negative or CD19 positive target cells, increasing concentration of AP1903) is “responded only to CD19 positive targets in the presence of AP1903; also recorded: signal only in the presence of CID”. Besides, the “Signalling of AP1903-inducible CAR T-cells at very high dimerizer concentration” value in assay [2] (very high concentration of dimerizer, CD19 positive targets) was “signalling was inhibited; also recorded: signalling is reduced”. For the same compound, in assay [3], the “Selectivity of dimerization: FKBP-like (F36V) domains versus endogenous FKBP” value is “no interactions involving endogenous FKBP”.
